Assay results as given in paper PMC12040169 (PLOS Biology, 2025).

What was measured:
[1] = tested on: T1, C. trachomatis L2/434/Bu expressing GFP (CTL2-GFP); assay: microbe, parasite or virus in culture; set-up: C. trachomatis total inclusion area by high-content imaging, normalised to DMSO; details: Chlamydia trachomatis, HeLa, 28.5 h; total inclusion area; read-out: % of control remaining
T1 construct: L2/434/Bu GFP intracellular growth in HeLa cells
From the text: We screened a library of 36,785 small molecules displaying drug-like properties and covering a wide chemical space (Fig 1A and S2A Data). In this process, we also complemented the assay described above with an imaging-based readout (Fig 1B). After measurements of bulk GFP and resorufin fluorescence, cells were fixed, stained with the DNA dye Hoechst, and imaged at a high-content imaging platform to detect chlamydial inclusions (GFP) and host cell nuclei (Hoechst). The total area and number of inclusions in individual wells and the number of nuclei then served as additional proxies for chlamydial growth and host cell viability. […] MICs were calculated as described above.

[2] = tested on: T2, CTL2-GFP (C. trachomatis L2/434/Bu, GFP-expressing); assay: microbe, parasite or virus in culture; set-up: Intracellular C. trachomatis growth in HeLa cells, bulk GFP fluorescence relative to DMSO; details: Chlamydia trachomatis, HeLa, 28.5 h; bulk GFP, mean of 2; read-out: % of control remaining
T2 construct: L2/434/Bu, GFP-expressing
Experimental: MICs were calculated as described above.

in vitro = assay: in vitro; set-up: Viability of infected HeLa host cells, resazurin conversion, bulk resorufin fluorescence relative to DMSO; details: human, hela cells; bulk resorufin, mean of 2

Row | Compound | activity at 1 µM [1] [%] | activity at 5 µM [1] [%] | activity at 10 µM [1] [%] | activity at 1 µM [2] [%] | activity at 5 µM [2] [%] | activity at 10 µM [2] [%] | viability at 28.5 h, 1 µM (in vitro) [%] | viability at 28.5 h, 5 µM (in vitro) [%] | viability at 28.5 h, 10 µM (in vitro) [%]
1 | c1ccc(-c2nc3cc4ccccc4cc3[nH]2)nc1 [CBK000130] | 98.2 | 31.5 | 14.1 | 133 | 40.2 | 18.3 | 99.1 | 95.7 | 90.5
2 | N#CC(CCCN1CCN(c2ccccc2)CC1)(c1ccccc1)c1ccccc1 [CBK002243C] | 42.5 | 23.5 | 17.3 | 106 | 74 | 41.5 | 99.6 | 105 | 118
3 | NC(Cc1ccccc1)CN(CC1(c2ccc(Cl)cc2)CC1)C(=O)Nc1ccc2c(c1)OCO2 (stereo not drawn) [CBK002342C] | 109 | 43.5 | 54 | 211 | 102 | 98.8 | 95.3 | 95.4 | 93.5
4 | CC(C)(CN)CN(Cc1c[nH]c(-c2ccccc2)n1)C(=O)Nc1ccc(C(C)(C)C)cc1 [CBK002462C] | 106 | 55.9 | 29 | 139 | 101 | 29.5 | 91.6 | 89.2 | 72.5
5 | CN(C)[C@H]1CCC[C@@H]1C(=O)Nc1ccc(Cl)c(Cl)c1 [CBK003406] | 112 | 76.4 | 20.8 | 90.9 | 67.2 | 13 | 105 | 109 | 107
6 | C[C@@H]1CN(c2ccc(C(F)(F)F)c(OCc3ccccc3)n2)CCN1 [CBK003987A] | 70.4 | 53.4 | 17.6 | 110 | 90.5 | 35 | 102 | 98.9 | 113
7 | CCOc1ccsc1C(=O)Nc1cc(C)ccn1 [CBK004029] | 116 | 64.9 | 19.7 | 122 | 61.7 | 32.4 | 92.3 | 92.3 | 71.7
8 | Cc1cccc(N(C)S(=O)(=O)c2ccc(N3CCCNCC3)c3ccccc23)c1C [CBK004430C] | 121 | 56.7 | 8.36 | 142 | 95.8 | 45.1 | 89.7 | 84.9 | 88.8
9 | COc1cccc(CNC(C(=O)O)c2ccc3c(c2)OCO3)c1 (stereo not drawn) [CBK015420D] | 103 | 49.9 | 20.3 | 107 | 30.9 | 12.5 | 92.7 | 92.5 | 87.4
10 | CC(Oc1cccc2ccccc12)C(=S)N(C)c1ccccc1 (stereo not drawn) [CBK016158] | 105 | 98.3 | 84.8 | 98.8 | 81.4 | 67.6 | 113 | 117 | 107
11 | Cc1cc(Br)ccc1S(=O)(=O)N(C)c1ccc(N2CCNCC2)c2ccccc12 [CBK016170C] | 63.9 | 26.9 | 12.9 | 106 | 75.3 | 35.2 | 91.8 | 92.1 | 112
12 | CCC1C(c2ccc(C)cc2)=CCC(C(=O)NCCCN(C)C)C1C (stereo not drawn) [CBK016514] | 109 | 44.4 | 8.47 | 112 | 33.9 | 9.47 | 104 | 88.9 | 100
13 | CCCN(CCC)CCc1cccc2c1CCN2C(=O)c1cc2ccccc2s1 [CBK017871C] | 58 | 26.8 | 2.13 | 42.3 | 18.2 | 9.45 | 96.8 | 96.9 | 97.3
14 | COc1ccccc1N/C(=N\OCc1ccc(Cl)cc1Cl)c1nonc1N [CBK018391] | 89.5 | 84 | 56.1 | 137 | 122 | 103 | 90.7 | 92.4 | 94.7
15 | CCc1nnc(NS(=O)(=O)c2ccc(NC(=S)NC(=O)c3ccco3)cc2)s1 [CBK018917] | 79.7 | 57 | 24.2 | 117 | 56.1 | 18.8 | 100 | 94.7 | 115
